Measurements published in patent US8895733B2 (Novartis AG, priority 2010, dated 2014).

target: T1, Nav 1.7 (Homo sapiens, UniProt Q15858); assay: Whole-cell voltage clamp electrophysiology, automated patch clamp (marker c in Table of Examples); type: cell-based; conditions: marker c = Automated patch clamp data; read-out: Nav 1.7 activity
T1 construct: expressed in transfected cells
In short: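 A voltage protocol weighted toward inactivated-state block was used to test compounds on stably expressing cells, with pulses from −65 mV holding to −10 mV test and −100 mV. Currents came from whole-cell automated patch-clamp recordings, either IonWorks Quattro or other automated instruments, usually in perforated-patch mode.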

T1 sequence (Q15858 whole entry): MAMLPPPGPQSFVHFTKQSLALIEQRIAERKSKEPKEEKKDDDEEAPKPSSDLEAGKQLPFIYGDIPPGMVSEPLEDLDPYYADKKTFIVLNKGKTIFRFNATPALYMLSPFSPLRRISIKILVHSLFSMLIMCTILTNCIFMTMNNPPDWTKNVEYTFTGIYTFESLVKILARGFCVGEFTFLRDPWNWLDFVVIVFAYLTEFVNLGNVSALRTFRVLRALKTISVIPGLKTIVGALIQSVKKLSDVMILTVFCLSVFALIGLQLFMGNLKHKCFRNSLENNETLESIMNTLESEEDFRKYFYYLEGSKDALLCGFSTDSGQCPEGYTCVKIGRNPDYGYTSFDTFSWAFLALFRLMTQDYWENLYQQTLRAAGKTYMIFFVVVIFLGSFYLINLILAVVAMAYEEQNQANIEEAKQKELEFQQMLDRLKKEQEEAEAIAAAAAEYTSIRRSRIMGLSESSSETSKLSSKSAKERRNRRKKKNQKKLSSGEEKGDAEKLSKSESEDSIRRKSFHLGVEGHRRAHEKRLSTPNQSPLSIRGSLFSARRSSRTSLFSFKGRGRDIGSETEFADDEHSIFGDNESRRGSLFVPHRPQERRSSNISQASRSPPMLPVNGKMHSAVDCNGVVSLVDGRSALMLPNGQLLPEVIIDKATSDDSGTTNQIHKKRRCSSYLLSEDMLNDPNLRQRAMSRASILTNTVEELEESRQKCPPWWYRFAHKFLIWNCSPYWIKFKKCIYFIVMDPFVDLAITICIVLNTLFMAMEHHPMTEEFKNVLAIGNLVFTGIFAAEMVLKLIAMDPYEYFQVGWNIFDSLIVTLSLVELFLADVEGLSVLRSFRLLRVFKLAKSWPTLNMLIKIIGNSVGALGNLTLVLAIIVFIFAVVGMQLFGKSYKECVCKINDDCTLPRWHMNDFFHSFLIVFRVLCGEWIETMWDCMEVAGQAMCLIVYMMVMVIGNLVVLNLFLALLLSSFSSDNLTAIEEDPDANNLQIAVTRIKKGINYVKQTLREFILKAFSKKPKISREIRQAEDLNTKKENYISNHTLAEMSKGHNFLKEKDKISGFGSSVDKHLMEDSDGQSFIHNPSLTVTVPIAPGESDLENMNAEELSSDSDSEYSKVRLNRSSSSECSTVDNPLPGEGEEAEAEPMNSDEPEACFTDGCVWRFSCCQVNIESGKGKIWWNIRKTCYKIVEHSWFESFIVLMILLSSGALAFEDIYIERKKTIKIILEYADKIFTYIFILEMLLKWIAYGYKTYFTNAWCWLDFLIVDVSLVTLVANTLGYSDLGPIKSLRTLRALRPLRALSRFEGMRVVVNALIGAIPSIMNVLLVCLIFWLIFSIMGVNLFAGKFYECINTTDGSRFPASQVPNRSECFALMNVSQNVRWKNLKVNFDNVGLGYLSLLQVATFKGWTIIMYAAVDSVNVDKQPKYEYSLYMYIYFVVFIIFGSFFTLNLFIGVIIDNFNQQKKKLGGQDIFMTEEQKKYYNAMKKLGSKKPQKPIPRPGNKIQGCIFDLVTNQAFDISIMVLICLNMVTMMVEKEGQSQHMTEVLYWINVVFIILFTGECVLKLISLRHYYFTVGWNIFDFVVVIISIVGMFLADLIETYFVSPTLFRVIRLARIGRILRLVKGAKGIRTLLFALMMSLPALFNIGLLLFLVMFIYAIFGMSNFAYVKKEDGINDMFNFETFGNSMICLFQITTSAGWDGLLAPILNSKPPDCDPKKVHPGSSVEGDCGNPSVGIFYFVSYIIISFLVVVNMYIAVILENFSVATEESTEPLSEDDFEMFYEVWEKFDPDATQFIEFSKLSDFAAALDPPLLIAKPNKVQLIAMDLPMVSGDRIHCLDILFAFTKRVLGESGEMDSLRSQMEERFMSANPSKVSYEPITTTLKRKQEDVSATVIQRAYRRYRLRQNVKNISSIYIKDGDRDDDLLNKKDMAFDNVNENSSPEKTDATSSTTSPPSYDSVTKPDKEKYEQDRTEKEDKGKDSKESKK

Row | IC50 [nM] | SMILES
1 | 1220 | CN(c1ccccc1)c1nc(N)nc(-c2noc(-c3ncccc3OCC(F)(F)F)n2)n1 [Example 486, 2-N-methyl-2-N-phenyl-6-{5-[3-(2,2,2-trifluoroethoxy)pyridin-2-yl]-1,2,4-oxadiazol-3-yl}-1,3,5-triazine-2,4-diamine]
2 | > 6590 | CN(c1ccccc1)c1nc(N)nc(-c2noc(-c3ncccc3NCC3CC3)n2)n1 [Example 487, 6-{5-[3-(Cyclopropylmethylamino)-pyridin-2-yl]-[1,2,4]oxadiazol-3-yl}-N-methyl-N-phenyl-[1,3,5]triazine-2,4-diamine]
3 | 838 | CN(c1ccccc1)c1nc(N)nc(-c2noc(-c3ncccc3NC3CCC3)n2)n1 [Example 488, 6-{5-[3-(cyclobutylamino)pyridin-2-yl]-1,2,4-oxadiazol-3-yl}-2-N-methyl-2-N-phenyl-1,3,5-triazine-2,4-diamine]
4 | 464 | CN(c1ccccc1)c1nc(N)nc(-c2noc(-c3ncccc3N3CCOCC3)n2)n1 [Example 490, 2-N-methyl-6-{5-[3-(morpholin-4-yl)pyridin-2-yl]-1,2,4-oxadiazol-3-yl}-2-N-phenyl-1,3,5-triazine-2,4-diamine]
5 | > 8080 | CC(C)OC1CN(c2nc(-c3nc(N)nc(N(C)c4ccccc4)n3)no2)C1 [Example 492, 6-[5-(3-Isopropoxyazetidin-1-yl)-[1,2,4]oxadiazol-3-yl]-N-methyl-N-phenyl-[1,3,5]triazine-2,4-diamine]
6 | > 9350 | COC1CN(c2nc(-c3nc(N)nc(N(C)c4ccccc4)n3)no2)C1 [Example 493, 6-[5-(3-methoxyazetidin-1-yl)-1,2,4-oxadiazol-3-yl]-2-N-methyl-2-N-phenyl-1,3,5-triazine-2,4-diamine]
7 | 1980 | CN(c1ccccc1)c1nc(N)nc(-c2noc(N3CC(OCC(F)(F)F)C3)n2)n1 [Example 494, 2-N-methyl-2-N-phenyl-6-{5-[3-(2,2,2-trifluoroethoxy)azetidin-1-yl]-1,2,4-oxadiazol-3-yl}-1,3,5-triazine-2,4-diamine]
8 | 1910 | CN(c1ccccc1)c1nc(N)nc(-c2noc(N3CC(COc4ccccc4)C3)n2)n1 [Example 495, N-Methyl-6-[5-(3-phenoxymethylazetidin-1-yl)-[1,2,4]oxadiazol-3-yl]-N-phenyl-[1,3,5]triazine-2,4-diamine]
9 | 1220 | CN(c1ccccc1)c1nc(N)nc(-c2noc(N3CC(COCCC(F)(F)F)C3)n2)n1 [Example 496, 2-N-methyl-2-N-phenyl-6-(5-{3-[(3,3,3-trifluoropropoxy)methyl]azetidin-1-yl}-1,2,4-oxadiazol-3-yl)-1,3,5-triazine-2,4-diamine]
10 | 473 | CN(c1ccccc1)c1nc(N)nc(-c2noc(-c3ccc(COCC(F)(F)F)o3)n2)n1 [Example 497, 2-N-methyl-2-N-phenyl-6-(5-{5-[(2,2,2-trifluoroethoxy)methyl]furan-2-yl}-1,2,4-oxadiazol-3-yl)-1,3,5-triazine-2,4-diamine]
11 | 902 | CN(c1ccccc1)c1nc(N)nc(-c2noc(N3CC(OCC4CC4)C3)n2)n1 [Example 498, 6-{5-[3-(cyclopropylmethoxy)azetidin-1-yl]-1,2,4-oxadiazol-3-yl}-2-N-methyl-2-N-phenyl-1,3,5-triazine-2,4-diamine]
12 | 4590 | CN(c1ccccc1)c1nc(N)nc(-c2noc(N3CC(Oc4ccccn4)C3)n2)n1 [Example 499, 2-N-methyl-2-N-phenyl-6-{5-[3-(pyridin-2-yloxy)azetidin-1-yl]-1,2,4-oxadiazol-3-yl}-1,3,5-triazine-2,4-diamine]
13 | > 9120 | CN(c1ccccc1)c1nc(N)nc(-c2noc(N3CC4CCC(C3)O4)n2)n1 [Example 500, 2-N-methyl-6-(5-{8-oxa-3-azabicyclo[3.2.1]octan-3-yl}-1,2,4-oxadiazol-3-yl)-2-N-phenyl-1,3,5-triazine-2,4-diamine]
14 | 344 | CN(c1ccccc1)c1nc(N)nc(-c2noc(N3CCC(COCCC(F)(F)F)CC3)n2)n1 [Example 501, 2-N-methyl-2-N-phenyl-6-(5-{4-[(3,3,3-trifluoropropoxy)methyl]piperidin-1-yl}-1,2,4-oxadiazol-3-yl)-1,3,5-triazine-2,4-diamine]
15 | > 8950 | Nc1nc(Nc2ccccc2)nc(-c2noc(-c3cccnc3OCC(F)(F)F)n2)n1 [Example 502, 2-N-phenyl-6-{5-[2-(2,2,2-trifluoroethoxy)pyridin-3-yl]-1,2,4-oxadiazol-3-yl}-1,3,5-triazine-2,4-diamine]
16 | 461 | Nc1nc(Nc2ccccc2)nc(-c2noc(N3CC(Oc4ccccc4)C3)n2)n1 [Example 503, 6-[5-(3-phenoxyazetidin-1-yl)-1,2,4-oxadiazol-3-yl]-2-N-phenyl-1,3,5-triazine-2,4-diamine]
17 | > 5370 | CC(C)S(=O)(=O)N1CCN(c2nc(-c3nc(N)nc(N(C)c4ccccc4)n3)no2)CC1 [Example 504, 2-N-methyl-2-N-phenyl-6-{5-[4-(propane-2-sulfonyl)piperazin-1-yl]-1,2,4-oxadiazol-3-yl}-1,3,5-triazine-2,4-diamine]
18 | 982 | CN(c1ccccc1)c1nc(N)nc(-c2noc(C3CCN(C(=O)OC(C)(C)C)CC3)n2)n1 [Example 505, tert-butyl 4-(3-{4-amino-6-[methyl(phenyl)amino]-1,3,5-triazin-2-yl}-1,2,4-oxadiazol-5-yl)piperidine-1-carboxylate]
19 | 7100 | CN(c1ccccc1)c1nc(N)nc(-c2noc(C3CCN(S(=O)(=O)C4CC4)CC3)n2)n1 [Example 506, 6-{5-[1-(cyclopropanesulfonyl)piperidin-4-yl]-1,2,4-oxadiazol-3-yl}-2-N-methyl-2-N-phenyl-1,3,5-triazine-2,4-diamine]
20 | 1230 | CC(C)CS(=O)(=O)N1CCC(c2nc(-c3nc(N)nc(N(C)c4ccccc4)n3)no2)CC1 [Example 507, 2-N-methyl-6-(5-{1-[(2-methylpropane)sulfonyl]piperidin-4-yl}-1,2,4-oxadiazol-3-yl)-2-N-phenyl-1,3,5-triazine-2,4-diamine]
21 | 2430 | CCC(C)S(=O)(=O)N1CCC(c2nc(-c3nc(N)nc(N(C)c4ccccc4)n3)no2)CC1 (stereo not drawn) [Example 508, 6-{5-[1-(butane-2-sulfonyl)piperidin-4-yl]-1,2,4-oxadiazol-3-yl}-2-N-methyl-2-N-phenyl-1,3,5-triazine-2,4-diamine]
22 | 1110 | CN(c1ccccc1)c1nc(N)nc(-c2noc(C3CCN(S(=O)(=O)C4CCCC4)CC3)n2)n1 [Example 509, 6-{5-[1-(cyclopentanesulfonyl)piperidin-4-yl]-1,2,4-oxadiazol-3-yl}-2-N-methyl-2-N-phenyl-1,3,5-triazine-2,4-diamine]
23 | 1260 | CC(C)CN1CCC(c2nc(-c3nc(N)nc(N(C)c4ccccc4)n3)no2)CC1 [Example 510, 2-N-methyl-6-{5-[1-(2-methylpropyl)piperidin-4-yl]-1,2,4-oxadiazol-3-yl}-2-N-phenyl-1,3,5-triazine-2,4-diamine]
24 | 603 | CC(C)(C)OC(=O)N1CCC(c2nc(-c3nc(N)nc(Nc4ccccc4)n3)no2)CC1 [Example 512, tert-butyl 4-{3-[4-amino-6-(phenylamino)-1,3,5-triazin-2-yl]-1,2,4-oxadiazol-5-yl}piperidine-1-carboxylate]
25 | 631 | Nc1nc(Nc2ccccc2)nc(-c2noc(C3CCN(S(=O)(=O)C4CC4)CC3)n2)n1 [Example 513, 6-{5-[1-(cyclopropanesulfonyl)piperidin-4-yl]-1,2,4-oxadiazol-3-yl}-2-N-phenyl-1,3,5-triazine-2,4-diamine]
26 | 1730 | CCC(C)S(=O)(=O)N1CCC(c2nc(-c3nc(N)nc(Nc4ccccc4)n3)no2)CC1 (stereo not drawn) [Example 514, 6-{5-[1-(butane-2-sulfonyl)piperidin-4-yl]-1,2,4-oxadiazol-3-yl}-2-N-phenyl-1,3,5-triazine-2,4-diamine]
27 | 797 | CC(C)S(=O)(=O)N1CCC(c2nc(-c3nc(N)nc(Nc4ccccc4)n3)no2)CC1 [Example 515, 2-N-phenyl-6-{5-[1-(propane-2-sulfonyl)piperidin-4-yl]-1,2,4-oxadiazol-3-yl}-1,3,5-triazine-2,4-diamine]
28 | > 9560 | Nc1nc(Nc2ccccc2)nc(-c2noc(C3CCN(S(=O)(=O)C4CCCC4)CC3)n2)n1 [Example 516, 6-{5-[1-(cyclopentanesulfonyl)piperidin-4-yl]-1,2,4-oxadiazol-3-yl}-2-N-phenyl-1,3,5-triazine2,4-diamine]
29 | 570 | CN(C)S(=O)(=O)N1CCC(c2nc(-c3nc(N)nc(Nc4ccccc4)n3)no2)CC1 [Example 517, 4-{3-[4-amino-6-(phenylamino)-1,3,5-triazin-2-yl]-1,2,4-oxadiazol-5-yl}-N,N-dimethylpiperidine-1-sulfonamide]

Row | SMILES | IC50 [nM]
30 | CN(c1ccccc1)c1nc(N)nc(-c2noc(-c3ncccc3OC3CCC3)n2)n1 [Example 491, 6-[5-(3-cyclobutoxypyridin-2-yl)-1,2,4-oxadiazol-3-yl]-2-N-methyl-2-N-phenyl-1,3,5-triazine-2,4-diamine] | 1040
